Test results as given in PubChem BioAssay (NCI).
Values joined by “and” are separate entries in the source; they are usually repeats but may differ in a detail not shown here. Equal values may be shown once.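 Test compounds were applied to cells in 96-well plates for 48 hours at 5 doses. Abbreviation: GI50, concentration required for 50% inhibition of growth. At the TGI there is no net growth.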

Tests used:
Assay in all cases: NCI anticancer screen, dose series, 48 h
BT-549 breast = system: BT-549 breast
PC-3 prostate = system: PC-3 prostate
IGROV1 ovarian = system: IGROV1 ovarian
HOP-92 NSCLC = system: HOP-92 NSCLC
SNB-19 CNS = system: SNB-19 CNS
SNB-75 CNS = system: SNB-75 CNS
CAKI-1 renal = system: CAKI-1 renal
SK-MEL-2 melanoma = system: SK-MEL-2 melanoma
NCI-H522 lung = system: NCI-H522 lung
MOLT-4 leukemia = system: MOLT-4 leukemia

Row | Structure (SMILES) | TGI (BT-549 breast) [µM] | TGI (PC-3 prostate) [µM] | TGI (IGROV1 ovarian) [µM] | TGI (HOP-92 NSCLC) | TGI (SNB-19 CNS) | TGI (SNB-75 CNS) | TGI (CAKI-1 renal) [µM] | TGI (SK-MEL-2 melanoma) | TGI (NCI-H522 lung) | TGI (MOLT-4 leukemia) [µM] | GI50 (IGROV1 ovarian) [µM] | GI50 (HOP-92 NSCLC) [µM] | GI50 (SNB-19 CNS) [µM] | GI50 (SNB-75 CNS) [µM] | GI50 (CAKI-1 renal) | GI50 (SK-MEL-2 melanoma) [µM] | GI50 (NCI-H522 lung) [µM] | GI50 (MOLT-4 leukemia) [µM]
1 | COC(=O)c1ccc(C)cc1C1CN=NC12Cc1cccc(C)c1C2=O (stereo not given) | 91.4 | 70.6 | > 100 | > 100 µM | > 100 µM | > 100 µM | > 100 | 63.8 µM | 78.1 µM | 43.1 | – | – | – | – | – | – | – | –
2 | CNCC(SC)c1ccc(O)c(O)c1 (stereo not given) | 31 | > 100 | > 100 | 39.3 µM | > 100 µM | > 100 µM | 38 | > 100 µM | 34.5 µM | 47.2 | – | – | – | – | – | – | – | –
3 | CC(=O)N1CCOC12N=NC(C)(C)O2 (stereo not given) | > 100 | > 100 | > 100 | > 100 µM | > 100 µM | > 100 µM | > 100 | > 100 µM | > 100 µM | > 100 | – | – | – | – | – | – | – | –
4 | O=C(NNC(=O)c1ccncc1)C(=O)Nc1cc(Cl)c(Cl)cc1Cl | > 100 | > 100 | > 100 | > 100 µM | > 100 µM | > 100 µM | > 100 | > 100 µM | > 100 µM | > 100 | – | – | – | – | – | – | – | –
5 | Cc1cc2ccccc2oc(=O)/c1=N\Nc1ccccc1 | > 100 | > 100 | > 100 | > 100 µM | > 100 µM | 63.8 µM | > 100 | > 100 µM | > 100 µM | > 100 | – | – | – | – | – | – | – | –
6 | CC(C)(C)OC(=O)NCC(c1c[nH]c2ccccc12)c1c[nH]c2ccccc12 | 35.1 | 29.5 | 26.3 | 27.5 µM | 31.1 µM | 28.1 µM | 29.1 | 32.9 µM | 39.3 µM | 29.9 | – | – | – | – | – | – | – | –
7 | COc1ccc(-c2csc3c2[N+]2(C)C=CC=C2C3N2CCCC2)cc1 (stereo not given) | 58.3 | > 100 | 27.2 | 75.9 µM | > 100 µM | 36.8 µM | > 100 | 31.1 µM | 19.1 µM | > 100 | – | – | – | – | – | – | – | –
8 | O=C(Oc1cncc(Cl)c1)c1cc2ccccc2sc1=O | > 100 | > 100 | > 100 | > 100 µM | > 100 µM | > 100 µM | > 100 | 90.7 µM | 47.3 µM | 90 | – | – | – | – | – | – | – | –
9 | O=C(O)c1c(CC(Cc2ccccc2)C(=O)O)ccc2c1CCC2 (stereo not given) | > 100 | > 100 | > 100 | > 100 µM | > 100 µM | > 100 µM | > 100 | > 100 µM | > 100 µM | > 100 | – | – | – | – | – | – | – | –
10 | COc1ccc(N=C(C)C(C)=Nc2ccc(OC)cc2)cc1 | > 100 | > 100 | > 100 | > 100 µM | > 100 µM | > 100 µM | > 100 | > 100 µM | > 100 µM | > 100 | – | – | – | – | – | – | – | –
11 | CCOC(=O)c1cnc2n(c1=O)[C@H]1CCCC[C@@H]1N2 | > 100 | > 100 | > 100 | > 100 µM | > 100 µM | > 100 µM | > 100 | > 100 µM | > 100 µM | > 100 | – | – | – | – | – | – | – | –
12 | Nc1ccnc2c1ncn2[C@H]1C[C@H](O)[C@@H](CO)O1 | > 100 | > 100 | > 100 | > 100 µM | > 100 µM | > 100 µM | > 100 | > 100 µM | > 100 µM | > 100 | – | – | – | – | – | – | – | –
13 | CC(C)=CC(=O)OC1C2C(C)=CC(=O)C(O)C2(C)C2C3(O)OCC24C(CC(=O)OC14)C(C)C3O (stereo not given) | 0.00846 | 0.0129 | – | 0.0465 µM and 0.0367 µM | 0.0303 µM and 0.0462 µM | 0.0621 µM and 0.0711 µM and 0.062 µM | – | 0.0723 µM and 0.0279 µM and 0.0695 µM | 0.011 µM and 0.0215 µM | – | 0.02 | 0.0207 | 0.0273 | 0.0338 | 0.245 µM and 1.13 µM and 0.293 µM | 0.025 | 0.02 | 0.02
